The text below walks through data of patent US7538111B2, “Benzenesulphonamide derivatives, method for production and use thereof for treatment of pain” (Laboratoires Fournier S.A., priority 2003, dated 2009).

Where a name gives a salt, the structure may show the parent alone.

The test system of one series is formalin-induced pain response (paw licking). The series is described as follows: formalin-induced pain response test in mice. Format: in vivo. Particulars: oral route, dose 3 mg/kg, 2nd phase 15 to 30 min after formalin injection. As for the experimental part:
The compounds of the present invention were evaluated for their analgesic property using the formalin-induced pain response test in mice (Shibata, M., Ohkubo, T., Takahashi, H. & R. Inoki. Modified formalin test: characteristic biphasic pain response. Pain, 38, 347-352). To summarize, formalin (0.92% in physiological saline) is injected into the hind paw and the period of paw licking, which represents pain intensity, is recorded from 0 to 5 min (1st phase) and from 15 to 30 min (2nd phase) after the injection.
As for `COc1cc(C)c(S(=O)(=O)N(C)CCOCC(=O)N2CCN(C3CN4CCC3CC4)CC2)c(C)c1` (racemic) [Example 4, N-[2-[2-[4-[(3RS)-1-azabicyclo[2.2.2]oct-3-yl]-1-piperazinyl]-2-oxo-ethoxy]ethyl]-4-methoxy-N,2,6-trimethylbenzenesulphonamide, difumarate], the “percentage inhibition of the second paw licking phase induced by formalin” value stood at 43%.

A further series addresses T1, B1 receptor of bradykinin (Homo sapiens, UniProt P46663).
T1 construct: To induce expression of the B1 receptor of bradykinin, the vein segments are allowed to incubate at 37° C; from tissue; host or cells: human umbilical vein rings, endothelium removed, incubated 16 h in EMEM to induce the receptor
T1 sequence (P46663 1-353): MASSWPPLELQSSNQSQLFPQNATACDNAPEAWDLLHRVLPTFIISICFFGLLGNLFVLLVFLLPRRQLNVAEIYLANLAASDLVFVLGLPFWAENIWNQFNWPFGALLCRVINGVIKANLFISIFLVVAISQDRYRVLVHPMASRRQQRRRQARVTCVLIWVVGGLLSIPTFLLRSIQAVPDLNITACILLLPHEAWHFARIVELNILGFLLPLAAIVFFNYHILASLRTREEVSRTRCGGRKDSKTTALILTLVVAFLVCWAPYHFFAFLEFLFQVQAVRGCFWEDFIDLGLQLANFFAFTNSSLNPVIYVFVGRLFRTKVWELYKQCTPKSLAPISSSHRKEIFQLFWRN
The series is described as follows: human umbilical vein contraction by des-Arg10-Kallidin, antagonism at the B1 receptor of bradykinin. The note with it: isolated human umbilical vein rings, agonist des-Arg10-Kallidin, pKB=-log KB from EC50 concentration ratio. The format is cell-based. On the procedure: This test uses the human umbilical vein and is conducted as per the following protocol:
The cord is dissected in Krebs solution to release the umbilical vein. The vein is cleansed of all adhering tissue and cut into small rings 3-4 mm in width. The endothelium is carefully removed by inserting a fine n° 1 catheter, made slightly abrasive, into the vessel lumen.
After a series of rinsings, rests and load readjustments, the maximum contraction of each segment is determined by further depolarisation with the KPSS solution.
After a new rest period during which the 1 g load is constantly readjusted, the following compounds are added to the isolated organ bath: Mepyramine (1 μM), Atropine (1 μM), Indometacine (3 μM), LNA (30 μM), Captopril (10 μM), DL-Thiorphan (1 μM) and Nifedipine (0.1 μM).
After 20 minutes, the molecule to be tested or the molecule solvent is added to the isolated organ bath. The molecules are examined at 10 μM; should a molecule show a sufficient level of activity, it is examined at lower concentrations (eg: 1-0.1-0.01 μM).
After 15 minutes incubation, the vein segments are contracted through the addition of increasing concentrations of des-Arg10-Kallidin (0.1 nM to 30 000 nM) in the chamber.
The pKB=[−log KB] is obtained from the equation: KB—[A]/(concentration ratio−1) in which [A] is the concentration of antagonist and the (concentration ratio) represents the ratio between EC50 in the presence of an antagonist and EC50 in the absence of antagonist.
Turning to `COc1cc(C)c(S(=O)(=O)N(CCOCC(=O)N2CCN(CCN3CCCC3)CC2)C2CC2)c(C)c1` [Example 19, N-[2-[2-[4-[2-(1-pyrrolidinyl)ethyl]-1-piperazinyl]-2-oxo-ethoxy]ethyl]-4-methoxy-N-cyclopropyl-2,6-dimethylbenzenesulphonamide, difumarate], the antagonist equilibrium constant (Kb) was 31.6 nM.

Take `CCN(CCOCC(=O)N1CCN(C2CCN(C)CC2)CC1)S(=O)(=O)c1c(C)cc(OC)cc1C` [Example 21, N-[2-[2-[4-(1-methyl-4-piperidinyl)-1-piperazinyl]-2-oxo-ethoxy]ethyl]-4-methoxy-N-ethyl-2,6-dimethylbenzenesulphonamide, difumarate]: the Kb was 15.8 nM. Regarding `COc1cc(C)c(S(=O)(=O)N(C)CCOCC(=O)N2CCN(C3CCN(C(C)(C)C)CC3)CC2)c(C)c1` [Example 32, N-[2-[2-[4-[1-(1,1-dimethylethyl)-4-piperidinyl]-1-piperazinyl]-2-oxo-ethoxy]ethyl]-4-methoxy-N,2,6-trimethylbenzenesulphonamide, difumarate], the Kb is 0.631 nM.

Regarding `COc1cc(C)c(S(=O)(=O)N(C)CCOCC(=O)N2CCN(CCCN3CCN(C)CC3)CC2)c(C)c1` [Example 45, N-[2-[2-[4-[3-(4-methyl-1-piperazinyl)propyl]-1-piperazinyl]-2-oxo-ethoxy]ethyl]-4-methoxy-N,2,6-trimethylbenzenesulphonamide, difumarate], the Kb was 12.6 nM. For the compound `CCN1C2CCC1CC(N1CCN(C(=O)COCCN(C)S(=O)(=O)c3c(C)cc(OC)cc3C)CC1)C2` (centres unmarked) [Example 46, N-[2-[2-[4-(8-ethyl-8-azabicyclo[3.2.1]oct-3-yl)-1-piperazinyl]-2-oxo-ethoxy]ethyl]-4-methoxy-N,2,6-trimethylbenzenesulphonamide, difumarate], the antagonist equilibrium constant (Kb) is 2.51 nM. The same measure, in the same setting: to `COc1cc(C)c(S(=O)(=O)N(C)CCOCC(=O)N2CCC(CCN3CCCC3)CC2)c(C)c1` [Example 76, 4-methoxy-N,2,6-trimethyl-N-[2-[2-[4-[2-(1-pyrrolidinyl)ethyl]-1-piperidinyl]-2-oxoethoxy]ethyl]benzenesulphonamide, fumarate] belongs 10 nM; to `COc1cc(C)c(S(=O)(=O)N(CCOCC(=O)N2CCC(CCN3CCCC3)CC2)C2CC2)c(C)c1` [Example 79, N-cyclopropyl-4-methoxy-2,6-dimethyl-N-[2-[2-[4-[2-(1-pyrrolidinyl)ethyl]-1-piperidinyl]-2-oxoethoxy]ethyl]benzenesulphonamide, fumarate], 7.94 nM; to `CCN1CCC(C2CCN(C(=O)COCCN(C)S(=O)(=O)c3c(C)cc(OC)cc3C)CC2)CC1` [Example 84, 4-methoxy-N,2,6-trimethyl-N-[2-[2-[4-(1-ethyl-4-piperidinyl)-1-piperidinyl]-2-oxoethoxy]ethyl]benzenesulphonamide, fumarate], 0.631 nM. `COc1cc(C)c(S(=O)(=O)N(C)CCOCC(=O)N2CCC(N3CCCN(C)CC3)CC2)c(C)c1` [Example 89, N-[2-[2-[4-(hexahydro-4-methyl-1H-1,4-diazepin-1-yl)-1-piperidinyl]-2-oxoethoxy]ethyl]-4-methoxy-N,2,6-trimethylbenzenesulphonamide, fumarate]: the Kb is 7.94 nM.

System in the next series: not given
Experiment: not given
Settings: not given
Compound `CCN(CC)CCC1CCN(C(=O)COCCN(C)S(=O)(=O)c2c(C)cc(OC)cc2C)CC1.O=C(O)/C=C/C(=O)O` showed a melting point of 60 °C.

In turn, `COc1cc(C)c(S(=O)(=O)N(C)CCOCC(=O)N2CCC(CN3CCC3)CC2)c(C)c1.O=C(O)/C=C/C(=O)O` returned a melting point of 75 °C.

The compound `COc1cc(C)c(S(=O)(=O)N(C)CCOCC(=O)N2CCC(CCCN3CCC3)CC2)c(C)c1.O=C(O)/C=C/C(=O)O` returned a melting point of 65 °C.

`COc1cc(C)c(S(=O)(=O)N(C)CCOCC(=O)N2CCC(CCCN(C)C)CC2)c(C)c1.O=C(O)/C=C/C(=O)O` came in with a melting point of 55 °C.

`COc1cc(C)c(S(=O)(=O)N(C)CCOCC(=O)N2CCN(CCCN3CCC3)CC2)c(C)c1.O=C(O)/C=C/C(=O)O.O=C(O)/C=C/C(=O)O`: the melting point was determined as 82 °C.

`CCN(CCOCC(=O)N1CCN(CCCN(C)C)CC1)S(=O)(=O)c1c(C)cc(OC)cc1C.O=C(O)/C=C/C(=O)O.O=C(O)/C=C/C(=O)O`: the melting point is 60 °C. In turn, `COc1cc(Cl)c(S(=O)(=O)N(C)CCOCC(=O)N2CCN(CCCN(C)C)CC2)c(Cl)c1.O=C(O)/C=C/C(=O)O.O=C(O)/C=C/C(=O)O` gave a melting point of 60 °C. Still for that read-out and setting: to `COc1cc(C)c(S(=O)(=O)N(C)CCOCC(=O)N2CCC(C(C)(C)CN3CCC3)CC2)c(C)c1.O=C(O)/C=C/C(=O)O` belongs 60 to 62 °C. The same measure, in the same setting: the result for `COc1cc(Cl)c(S(=O)(=O)N(C)CCOCC(=O)N2CCC(CCN(C)C)CC2)c(Cl)c1.O=C(O)/C=C/C(=O)O` reads 70 °C.

In turn, `COc1cc(C)c(S(=O)(=O)N(CCOCC(=O)N2CCN(CCN3CCCC3)CC2)C2CC2)c(C)c1` (as salt: fumarate) [Example 19, N-[2-[2-[4-[2-(1-pyrrolidinyl)ethyl]-1-piperazinyl]-2-oxo-ethoxy]ethyl]-4-methoxy-N-cyclopropyl-2,6-dimethylbenzenesulphonamide, difumarate] had a melting point of 141 °C. The same measure, in the same setting: to `CCN(CCOCC(=O)N1CCN(C2CCN(C)CC2)CC1)S(=O)(=O)c1c(C)cc(OC)cc1C` (as salt: fumarate) [Example 21, N-[2-[2-[4-(1-methyl-4-piperidinyl)-1-piperazinyl]-2-oxo-ethoxy]ethyl]-4-methoxy-N-ethyl-2,6-dimethylbenzenesulphonamide, difumarate] belongs 206 °C; to `COc1cc(C)c(S(=O)(=O)N(C)CCOCC(=O)N2CCN(C3CCN(C(C)(C)C)CC3)CC2)c(C)c1` (as salt: fumarate) [Example 32, N-[2-[2-[4-[1-(1,1-dimethylethyl)-4-piperidinyl]-1-piperazinyl]-2-oxo-ethoxy]ethyl]-4-methoxy-N,2,6-trimethylbenzenesulphonamide, difumarate], 230 °C.

In turn, `COc1cc(C)c(S(=O)(=O)N(C)CCOCC(=O)N2CCN(CCCN3CCN(C)CC3)CC2)c(C)c1` (as salt: fumarate) [Example 45, N-[2-[2-[4-[3-(4-methyl-1-piperazinyl)propyl]-1-piperazinyl]-2-oxo-ethoxy]ethyl]-4-methoxy-N,2,6-trimethylbenzenesulphonamide, difumarate] registered a melting point of 204 °C. `CCN1C2CCC1CC(N1CCN(C(=O)COCCN(C)S(=O)(=O)c3c(C)cc(OC)cc3C)CC1)C2` (centres unmarked) (as salt: fumarate) [Example 46, N-[2-[2-[4-(8-ethyl-8-azabicyclo[3.2.1]oct-3-yl)-1-piperazinyl]-2-oxo-ethoxy]ethyl]-4-methoxy-N,2,6-trimethylbenzenesulphonamide, difumarate] had a melting point of 132 °C. Same read-out and setting: the result for `COc1cc(C)c(S(=O)(=O)N(C)CCOCC(=O)N2CCC(CCN3CCCC3)CC2)c(C)c1` (as salt: fumarate) [Example 76, 4-methoxy-N,2,6-trimethyl-N-[2-[2-[4-[2-(1-pyrrolidinyl)ethyl]-1-piperidinyl]-2-oxoethoxy]ethyl]benzenesulphonamide, fumarate] reads 55 °C; that for `COc1cc(C)c(S(=O)(=O)N(CCOCC(=O)N2CCC(CCN3CCCC3)CC2)C2CC2)c(C)c1` (as salt: fumarate) [Example 79, N-cyclopropyl-4-methoxy-2,6-dimethyl-N-[2-[2-[4-[2-(1-pyrrolidinyl)ethyl]-1-piperidinyl]-2-oxoethoxy]ethyl]benzenesulphonamide, fumarate], 50 °C.
